# Source: US8017727B2, “Conjugates of membrane translocating agents and pharmaceutically active agents” (Merrion Research III Limited, priority 1999, dated 2011)
# Where two headings read alike, the source gives them in different places.
# What was measured:
# [1] = 3H tissue distribution of kappa peptide conjugates, conscious rat model; type: in vivo, Wistar rats; details: potency corrected; for Kidney, % of administered dose / Plasma, % of administered dose / Total Recovery, % of administered dose: t=6 h
# Experimental: The tissue was weighed and a representative sample, (ca 0.1 g), was removed to a scintillation vial. The tissue was solubilzed with 1 ml of BTS-450 (an organic tissue solubliser). Ten ml of scintillation fluid was added and the radioactivity was measured. The radioactivity was expressed as dpm/initial weight of tissue.
# [2] = Systemic 3H bioavailability of kappa peptide conjugates, conscious rat model (plasma); type: in vivo, Wistar rats
# Experimental: The possible enhancing effects of ELAN094 and ELAN207 MTLPs (SEQ ID NOs 2 and 60) on intestinal absorption of the kappa peptide were examined in a conscious rat model.
# The study was non-randomised, parallel group design. Wistar rats within the 250-350 g weight range were used. All animals were fasted for a period of 16 h prior to study initiation. Water was available at all times.
# Intravenous injection of 10 μCi of ^3H-kappa peptide-Kaffiralin-1 (plain kappa peptide) (tail vein injection).
# Intraduodenal instillation of 100 μCi of ^3H-kappa peptide-Elan094 (Analysed). The Elan094 ligand contains a membrane translocating sequence.
# Intraduodenal instillation of 100 μCi of ^3H-kappa peptide-Elan207 (Analysed). The Elan207 ligand contains a membrane translocating sequence.
# Intraduodenal instillation of 100 μCi of ^3H-kappa peptide-Kaffiralin-1.
# The plasma (100-250 μl) was made up to 1 ml with BTS-450 (an organic tissue solubiliser) and incubated for 1 hour. Ten ml of Scintillation fluid was added and the radioactivity was measured.
# The study was a non-randomised, parallel group biostudy designed to evaluate the systemic bioavailability of tritium labelled kappa peptide conjugates after intra-duodenal instillation in the conscious rat model. Each rat only received one treatment and the plasma samples were analysed for tritium content. The calculation of AUClast, Amax, tmax, Volume of Distribution (V d) and Clearance was based on base line corrected data. The absolute bioavailability was calculated using potency corrected data.
# kappa receptor = target: T1, kappa receptor (Rattus norvegicus, UniProt P34975); test: Competition for binding of a radiolabelled kappa peptide to rat brain homogenates; details: for opioid activity post conjugation: compared to unconjugated H-ffir-NH2 or to the ELAN207 conjugate
# T1 construct: from tissue; host or cells: rat brain homogenate
# Experimental: The integrity of the opioid peptide was evaluated post conjugation to assess suitability for inclusion in further studies. Opioid activity was assessed in vitro using a competition assay (competition for binding of a radiolabelled kappa peptide to rat brain homogenates).
# [3] = IV, 10 μCi, listed as 3H Kappa peptide-Kaffiralin-1
# [4] = intraduodenal (ID), 100 μCi, Elan207 = original group
# [5] = IC50, Table 11, first IC50 column
structure (smiles),measurement,setting,value
CC[C@@H](C)[C@@H](NC(=O)[C@@H](Cc1ccccc1)NC(=O)[C@H](N)Cc1ccccc1)C(=O)N[C@H](CCCNC(=N)N)C(N)=O [3H-Kappa peptide-Kaffiralin-1],"Catheter, % of administered dose","[1]; ID, 100 μCi",0.06 ± 0.05%
same,"GI Tissue, % of administered dose","[1]; ID, 100 μCi",7.72 ± 4.98%
same,"GI Washing, % of administered dose","[1]; ID, 100 μCi",15.85 ± 5.00%
same,"GI contents, % of administered dose","[1]; ID, 100 μCi",37.31 ± 15.75%
same,"Liver, % of administered dose","[1]; ID, 100 μCi",0.63 ± 0.37%
same,"Total GI (% recovery from GI tissue, GI contents & GI wash)","[1]; ID, 100 μCi",60.87 ± 16.74%
same,"Kidney, % of administered dose","[1]; ID, 100 μCi",0.16 ± 0.17%
same,"Plasma, % of administered dose","[1]; ID, 100 μCi",0.06 ± 0.01%
same,"Total Recovery, % of administered dose","[1]; ID, 100 μCi",61.79 ± 16.93%
same,"Plasma, % of administered dose","[1]; ID, 100 μCi, listed as 3H-Kappa peptide Kaffiralin-1",0.06±0.01%
same,"GI Tissue, % of administered dose","[1]; IV, 10 μCi",1.62 ± 0.41%
same,"GI Washing, % of administered dose","[1]; IV, 10 μCi",1.98 ± 1.01%
same,"GI contents, % of administered dose","[1]; IV, 10 μCi",23.50 ± 11.04%
same,"Liver, % of administered dose","[1]; IV, 10 μCi",6.66 ± 1.77%
same,"Total GI (% recovery from GI tissue, GI contents & GI wash)","[1]; IV, 10 μCi",27.10 ± 11.93%
same,"Liver, % of administered dose",[1]; [3],6.66±1.77%
same,"Kidney, % of administered dose","[1]; IV, 10 μCi",0.51 ± 0.08%
same,"Plasma, % of administered dose","[1]; IV, 10 μCi",0.16 ± 0.03%
same,"Total Recovery, % of administered dose","[1]; IV, 10 μCi",34.43 ± 13.36%
same,"Plasma, % of administered dose",[1]; [3],0.16±0.03%
same,"Total Recovery, % of administered dose","[1]; IV, 10 μCi, listed as 3H Kappa-peptide-Kaffiralin-1",34.43±13.36%
same,3H AUClast,[2]; [4],73098.43±9493.88 dpm/ml·h
same,3H Amax (maximum radioactivity),[2]; [4],70925.33±23631.28 dpm/ml
same,3H AUClast,"[2]; intravenous (IV), 10 μCi",132184.24±13288.32 dpm/ml·h
same,3H Amax (maximum radioactivity),"[2]; intravenous (IV), 10 μCi",903603.03±186855.31 dpm/ml
same,bioavailability,"[2]; rat, plasma, intraduodenal (ID), 100 μCi, potency corrected, Elan207 = original group, read-out: Absolute 3H bioavailability",7.94 ± 1.92%
same,clearance,"[2]; rat, plasma, intravenous (IV), 10 μCi",2.38 mL/min
same,Vd,"[2]; rat, plasma, intravenous (IV), 10 μCi, read-out: Volume of Distribution",0.964 ± 0.256 L
"CC[C@@H](C)[C@@H](NC(=O)[C@@H](Cc1ccccc1)NC(=O)[C@H](N)Cc1ccccc1)C(=O)N[C@H](CCCNC(=N)N)C(=O)NCCCC[C@@H](NC(=O)[C@H]1CCCN1C(=O)[C@@H](C)NC(=O)[C@@H](C)NC(=O)[C@@H](CC(C)C)NC(=O)[C@@H](CC(C)C)NC(=O)[C@H](NC(=O)[C@H]1CCCN1C(=O)[C@@H](CC(C)C)NC(=O)[C@@H](CC(C)C)NC(=O)[C@H](NC(=O)[C@@H](C)NC(=O)[C@@H](C)NC(=O)[C@@H](C)NC(=O)[C@@H](CCCCN)NC(=O)[C@@H](CCCCN)NC(=O)[C@@H](N)CCCCNC(=O)CCCCCNC(=O)CCCC[C@@H]1SC[C@@H]2NC(=O)N[C@@H]21)C(C)C)C(C)C)C(N)=O [P34-154, H-K(biotin-LC)kkaaavllpvllaapk(ffir-NH-e)-NH2]",opioid activity post conjugation,kappa receptor,retained activity
CC[C@@H](C)[C@@H](NC(=O)[C@@H](Cc1ccccc1)NC(=O)[C@H](N)Cc1ccccc1)C(=O)N[C@H](CCCNC(=N)N)C(=O)NCCCC[C@H](NC(=O)[C@@H]1CCCN1C(=O)[C@H](C)NC(=O)[C@H](C)NC(=O)[C@H](CC(C)C)NC(=O)[C@H](CC(C)C)NC(=O)[C@@H](NC(=O)[C@@H]1CCCN1C(=O)[C@H](CC(C)C)NC(=O)[C@H](CC(C)C)NC(=O)[C@@H](NC(=O)[C@H](C)NC(=O)[C@H](C)NC(=O)[C@H](C)NC(=O)[C@H](CCCCN)NC(=O)[C@H](CCCCN)NC(=O)[C@@H](N)CCCCNC(=O)CCCCCNC(=O)CCCC[C@@H]1SC[C@@H]2NC(=O)N[C@@H]21)C(C)C)C(C)C)C(N)=O [P37-114],IC50,kappa receptor; [5],0.4 nM
same,opioid activity post conjugation,kappa receptor,activity equivalent to that observed with ELAN207
"CC[C@@H](C)[C@@H](NC(=O)[C@@H](Cc1ccccc1)NC(=O)[C@H](N)Cc1ccccc1)C(=O)N[C@H](CCCNC(=N)N)C(=O)NCCCC[C@H](NC(=O)[C@@H](CCCCN)NC(=O)[C@@H](CCCCN)NC(=O)[C@@H](C)NC(=O)[C@@H](C)NC(=O)[C@@H](C)NC(=O)[C@H](NC(=O)[C@@H](CC(C)C)NC(=O)[C@@H](CC(C)C)NC(=O)[C@H]1CCCN1C(=O)[C@H](NC(=O)[C@@H](CC(C)C)NC(=O)[C@@H](CC(C)C)NC(=O)[C@@H](C)NC(=O)[C@@H](C)NC(=O)[C@H]1CCCN1C(=O)[C@@H](N)CCCCNC(=O)CCCCCNC(=O)CCCC[C@@H]1SC[C@@H]2NC(=O)N[C@@H]21)C(C)C)C(C)C)C(N)=O [P37-115, H-K(biotin-LC)paallvpllvaaakkK(ffir-NH-e)-NH2]",opioid activity post conjugation,kappa receptor,activity equivalent to that observed with ELAN207
CC[C@@H](C)[C@@H](NC(=O)[C@@H](Cc1ccccc1)NC(=O)[C@H](N)Cc1ccccc1)C(=O)N[C@H](CCCNC(=N)N)C(=O)NCCCC[C@H](NC(=O)[C@@H]1CSSC[C@H](NC(=O)[C@H](CCCCN)NC(=O)[C@H](CCCCN)NC(=O)[C@@H](N)CCCCNC(=O)CCCCCNC(=O)CCCC[C@@H]2SC[C@@H]3NC(=O)N[C@@H]32)C(=O)N[C@@H](C)C(=O)N[C@@H](C)C(=O)N[C@@H](C(C)C)C(=O)N[C@@H](CC(C)C)C(=O)N[C@@H](CC(C)C)C(=O)N2CCC[C@H]2C(=O)N[C@@H](C(C)C)C(=O)N[C@@H](CC(C)C)C(=O)N[C@@H](CC(C)C)C(=O)N[C@@H](C)C(=O)N1)C(N)=O [P37-116],IC50,kappa receptor; [5],0.2 nM
same,opioid activity post conjugation,kappa receptor,activity equivalent to that observed with ELAN207
"CC[C@@H](C)[C@@H](NC(=O)[C@@H](Cc1ccccc1)NC(=O)[C@H](N)Cc1ccccc1)C(=O)N[C@H](CCCNC(=N)N)C(=O)N[C@H](CCCCNC(=O)[C@H]1CCCN1C(=O)[C@@H](C)NC(=O)[C@@H](C)NC(=O)[C@@H](CC(C)C)NC(=O)[C@@H](CC(C)C)NC(=O)[C@H](NC(=O)[C@H]1CCCN1C(=O)[C@@H](CC(C)C)NC(=O)[C@@H](CC(C)C)NC(=O)[C@H](NC(=O)[C@@H](C)NC(=O)[C@@H](C)NC(=O)[C@@H](C)NC(=O)[C@@H](CCCCN)NC(=O)[C@H](N)CCCCN)C(C)C)C(C)C)C(N)=O [P10-110, H-ffirk(kkaaavllpvllaap-NH-e)-NH2]",opioid activity post conjugation,kappa receptor,significantly reduced
"CC[C@@H](C)[C@@H](NC(=O)[C@@H](Cc1ccccc1)NC(=O)[C@H](N)Cc1ccccc1)C(=O)N[C@H](CCCNC(=N)N)C(=O)NCCCC[C@@H](NC(=O)[C@H]1CCCN1C(=O)[C@@H](C)NC(=O)[C@@H](C)NC(=O)[C@@H](CC(C)C)NC(=O)[C@@H](CC(C)C)NC(=O)[C@H](NC(=O)[C@H]1CCCN1C(=O)[C@@H](CC(C)C)NC(=O)[C@@H](CC(C)C)NC(=O)[C@H](NC(=O)[C@@H](C)NC(=O)[C@@H](C)NC(=O)[C@@H](C)NC(=O)[C@@H](CCCCN)NC(=O)[C@H](N)CCCCN)C(C)C)C(C)C)C(N)=O [P10-114, H-kkaaavllpvllaapk(ffir-NH-e)-NH2]",IC50,"kappa receptor; Day 5, second of duplicates, read-out: IC50",1 nM
same,IC50,"kappa receptor; Day 82, first of triplicates, read-out: IC50",0.8 nM
same,IC50,"kappa receptor; Day 82, second of triplicates, read-out: IC50",0.8 nM
same,opioid activity post conjugation,kappa receptor,"retained, or even enhanced"
